Laboratory results as given in ChEMBL document CHEMBL4190316, “Synthesis and biological evaluation of 4-biphenylamino-5-halo-2(5H)-furanones as potential anticancer agents” (Eur J Med Chem, 2017).

Legend:
[1] = Octanol-water partition coefficient, log P of the compound at 10 mM after 24 hrs by UV-vis spectroscopic method; type: physicochemical
[2] = tested on: HaCaT; test: Cytotoxicity against human HaCaT cells assessed as reduction in cell viability after 72 hrs by MTT assay; type: cell-based
[3] = tested on: C6; test: Cytotoxicity against rat C6 cells assessed as reduction in cell viability after 72 hrs by MTT assay; type: functional, cell-based; conditions: C6, 72 h
[4] = tested on: MCF7; test: Cytotoxicity against human MCF7 cells assessed as reduction in cell viability after 72 hrs by MTT assay; type: functional, cell-based; conditions: MCF7, 72 h
[5] = tested on: MDA-MB-231; test: Cytotoxicity against human MDA-MB-231 cells assessed as reduction in cell viability after 72 hrs by MTT assay; type: functional, cell-based; conditions: MDA-MB-231, 72 h
[6] = Cytotoxicity against human NCI-EC1 cells assessed as reduction in cell viability after 72 hrs by MTT assay; type: functional, cell-based
[7] = tested on: CNE; test: Cytotoxicity against human CNE1 cells assessed as reduction in cell viability after 72 hrs by MTT assay; type: functional, cell-based
[8] = tested on: HepG2; test: Cytotoxicity against human HepG2 cells assessed as reduction in cell viability after 72 hrs by MTT assay; type: functional, cell-based; conditions: HepG2, 72 h

Structure (SMILES): CCOC1OC(=O)C(Br)=C1Nc1ccc(-c2ccc(N)cc2)cc1 (stereo unspecified)
- logP at 24 h, 10000 µM [1]: 1.58
- IC50 [2]: 70.8 µM
- IC50 [3]: 56.9 µM
- IC50 [4]: 58.1 µM
- IC50 [5]: 48.6 µM
- IC50 [6]: 82.8 µM
- IC50 [7]: 90.1 µM
- IC50 [8]: 55.8 µM

Structure (SMILES): COC1OC(=O)C(Cl)=C1Nc1ccc(-c2ccccc2)cc1 (stereo unspecified)
- logP at 24 h, 10000 µM [1]: 1.5
- IC50 [2]: 41.2 µM
- IC50 [3]: 36.3 µM
- IC50 [4]: 40.6 µM
- IC50 [5]: 66.5 µM
- IC50 [6]: 32.2 µM
- IC50 [7]: 53.5 µM
- IC50 [8]: 35.8 µM
